Experimental data: publication PMC5697763 (Bioconjugate chemistry, 2016)
Values joined by “and” are separate entries in the source; they are usually repeats but may differ in a detail not shown here. Equal values may be shown once. Read-outs that look alike come from different tables or passages of the source.

Target: LMCA1 (Listeria monocytogenes serovar 1/2a, UniProt Q8Y8Q5)
Test: biochemical
Type: biochemical

LMCA1, sequence (Q8Y8Q5 whole entry): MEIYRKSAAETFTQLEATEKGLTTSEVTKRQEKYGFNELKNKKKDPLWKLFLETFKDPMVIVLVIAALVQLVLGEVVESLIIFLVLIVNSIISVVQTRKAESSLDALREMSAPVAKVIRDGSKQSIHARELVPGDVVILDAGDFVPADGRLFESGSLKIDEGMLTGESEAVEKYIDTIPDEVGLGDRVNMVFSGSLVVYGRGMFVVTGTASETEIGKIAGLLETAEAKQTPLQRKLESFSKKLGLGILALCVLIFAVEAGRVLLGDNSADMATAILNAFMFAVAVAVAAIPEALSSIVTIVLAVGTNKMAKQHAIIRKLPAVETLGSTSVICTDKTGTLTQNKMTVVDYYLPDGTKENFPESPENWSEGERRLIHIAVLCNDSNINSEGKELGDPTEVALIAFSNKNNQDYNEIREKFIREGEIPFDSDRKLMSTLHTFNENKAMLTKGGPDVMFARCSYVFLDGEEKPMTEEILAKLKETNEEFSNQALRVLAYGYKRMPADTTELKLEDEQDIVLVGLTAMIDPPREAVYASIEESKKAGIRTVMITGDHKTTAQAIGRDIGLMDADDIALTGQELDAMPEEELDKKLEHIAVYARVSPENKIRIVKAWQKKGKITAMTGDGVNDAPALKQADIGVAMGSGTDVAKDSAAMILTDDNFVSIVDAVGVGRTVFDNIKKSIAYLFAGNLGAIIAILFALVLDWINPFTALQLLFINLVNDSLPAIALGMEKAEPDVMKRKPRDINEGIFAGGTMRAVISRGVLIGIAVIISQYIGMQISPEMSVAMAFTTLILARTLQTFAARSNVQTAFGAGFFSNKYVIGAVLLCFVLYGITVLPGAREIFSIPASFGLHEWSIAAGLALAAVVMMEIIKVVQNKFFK

[Be+2] [BeSO4]
IC50: 27 ± 5 µM
Hill coefficient (absence of NaF (H2O)): −0.72 ± 0.08
Hill coefficient (constant NaF concentration of 0.5 mM): −1.1 ± 0.1

F [NaF]
Hill coefficient: −2.4 and −2.4 ± 0.4
IC50: 2300 ± 200 µM
